Data as given in patent US10745384B2, “Indazole derivatives as αv integrin antagonists” (BRISTOL-MYERS SQUIBB COMPANY, priority 2016, dated 2020).
Counter-ions that a name gives are not always drawn.

How the values were obtained:
human αVβ6 = target: T1, human αVβ6 (Homo sapiens, UniProt P06756+P18564); test: human αVβ6 HTRF binding assay; conditions: recombinant human αVβ6 integrin, FITC-conjugated fibronectin
T1 construct: purchased R & D systems 3817-AV
Summary of the method: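 HTRF binding in 20 mM Tris pH 7.4 with 1 mM MgCl2, 1 mM MnCl2, 0.01% Tween 20 and 0.01% BSA. For αVβ6, biotinylated integrin (1.25 nM) and FITC-fibronectin (5 nM) were incubated 1 h at RT, then streptavidin-terbium (0.625 nM) was added overnight in the dark. An SPA-based fibronectin binding format was an alternative.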

human αVβ1 = human αVβ1 (Homo sapiens, UniProt P05556+P06756); test: human αVβ1 HTRF binding assay
human αVβ1, sequence (P06756 31-992 limits assumed): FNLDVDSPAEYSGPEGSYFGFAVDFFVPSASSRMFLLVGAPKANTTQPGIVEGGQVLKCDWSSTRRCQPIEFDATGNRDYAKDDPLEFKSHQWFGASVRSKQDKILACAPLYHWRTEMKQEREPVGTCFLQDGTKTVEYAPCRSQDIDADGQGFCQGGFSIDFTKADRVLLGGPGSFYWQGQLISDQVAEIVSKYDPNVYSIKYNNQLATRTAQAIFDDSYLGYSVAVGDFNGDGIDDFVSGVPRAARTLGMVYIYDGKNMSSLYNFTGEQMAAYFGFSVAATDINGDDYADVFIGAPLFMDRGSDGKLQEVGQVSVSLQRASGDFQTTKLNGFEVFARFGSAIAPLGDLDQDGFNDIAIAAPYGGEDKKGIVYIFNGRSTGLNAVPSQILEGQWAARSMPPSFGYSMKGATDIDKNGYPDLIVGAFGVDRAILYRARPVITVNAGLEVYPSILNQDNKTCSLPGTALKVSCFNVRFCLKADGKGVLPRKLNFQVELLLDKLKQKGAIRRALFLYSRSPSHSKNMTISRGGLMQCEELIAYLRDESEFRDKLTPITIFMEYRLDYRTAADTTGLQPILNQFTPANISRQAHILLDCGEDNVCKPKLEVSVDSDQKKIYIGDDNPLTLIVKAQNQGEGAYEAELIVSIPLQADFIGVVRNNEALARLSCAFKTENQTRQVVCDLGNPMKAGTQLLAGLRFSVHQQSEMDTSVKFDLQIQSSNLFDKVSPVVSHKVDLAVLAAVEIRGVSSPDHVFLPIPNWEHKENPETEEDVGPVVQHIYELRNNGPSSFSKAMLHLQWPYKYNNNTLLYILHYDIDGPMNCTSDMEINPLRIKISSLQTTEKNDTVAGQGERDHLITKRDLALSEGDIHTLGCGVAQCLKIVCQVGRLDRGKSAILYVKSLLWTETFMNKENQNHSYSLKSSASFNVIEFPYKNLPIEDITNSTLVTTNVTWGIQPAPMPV
human αVβ1, sequence (P05556 21-728 limits assumed): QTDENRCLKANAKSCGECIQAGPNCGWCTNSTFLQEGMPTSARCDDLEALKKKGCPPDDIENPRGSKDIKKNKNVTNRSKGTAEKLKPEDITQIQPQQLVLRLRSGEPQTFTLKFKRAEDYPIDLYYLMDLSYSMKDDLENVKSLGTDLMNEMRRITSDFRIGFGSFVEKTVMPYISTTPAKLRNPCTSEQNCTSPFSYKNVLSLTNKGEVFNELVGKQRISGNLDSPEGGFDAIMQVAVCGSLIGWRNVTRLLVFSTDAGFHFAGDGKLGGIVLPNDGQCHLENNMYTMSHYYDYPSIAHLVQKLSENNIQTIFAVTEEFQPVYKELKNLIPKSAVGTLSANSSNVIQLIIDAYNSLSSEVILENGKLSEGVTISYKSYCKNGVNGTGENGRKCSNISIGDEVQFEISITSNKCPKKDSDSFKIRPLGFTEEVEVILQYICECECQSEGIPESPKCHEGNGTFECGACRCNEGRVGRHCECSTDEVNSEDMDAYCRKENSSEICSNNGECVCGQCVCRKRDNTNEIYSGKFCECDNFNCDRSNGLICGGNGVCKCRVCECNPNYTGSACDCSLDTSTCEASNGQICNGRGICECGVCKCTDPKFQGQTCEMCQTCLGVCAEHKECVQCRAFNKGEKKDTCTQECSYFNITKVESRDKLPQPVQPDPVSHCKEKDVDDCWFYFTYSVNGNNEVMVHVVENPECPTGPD
Experimental: (§1) All binding assays used the HTRF (homogeneous time resolved fluorescence) technology from Cisbio International, therefore all assays are described as HTRF binding assays. The assay results for the Examples are listed above together with the characterization data. The HTRF binding assays are established for the following integrins: human αVβ6, human αVβ1, human αVβ3, human αVβ5, and human αVβ8. All assays used the following assay buffer: 20 mM Tris, pH 7.4, 1 mM MgCl2, 1 mM MnCl2, 0.01% Tween 20, and 0.01% BSA. Alternatively, a SPA-based assay was used for evaluation of receptor binding.
(§2) The following describes the components and a representative procedure for the human αVβ6 HTRF binding assay: Recombinant human αVβ6 Integrin (R & D systems, 3817-AV) was biotinylated. Biotinylated human αVβ6 Integrin was added to assay vessel at a final concentration of 1.25 nM. FITC-conjugated fibronectin (Cytoskeleton, FNR02) was then added at the final concentration of 5 nM. The mixture was centrifuged at 600 rpm for three minutes using Thermo Fisher Heraeus Multifuge X3 centrifuge and then incubated at room temperature for an hour. Streptavidin Terbium (Cisbio international 610STLB) was then added at the final concentration of 0.625 nM. The resulting mixture was centrifuged at 600 rpm for three minutes using Thermo Fisher Heraeus Multifuge X3 centrifuge and then incubated at room temperature overnight in dark before reading HTRF signals.
The SPA-based assay was carried out according to the protocol and procedures similar to the ones described in the following reference with appropriate modifications to agents and ligands which are readily understood by one skilled in the art: Pachter J A, Zhang R, Mayer-Ezell R., “Scintillation proximity assay to measure binding of soluble fibronectin to antibody-captured αVβ1 integrin” Anal Biochem. 1995 Sep. 1; 230(1):101-7.

human αVβ3 = human αVβ3 (Homo sapiens, UniProt P05106+P06756); test: human αVβ3 HTRF binding assay
human αVβ3, sequence (P06756 31-992 limits assumed): as the sequence (P06756 31-992 limits assumed) above
human αVβ3, sequence (P05106 27-718 limits assumed): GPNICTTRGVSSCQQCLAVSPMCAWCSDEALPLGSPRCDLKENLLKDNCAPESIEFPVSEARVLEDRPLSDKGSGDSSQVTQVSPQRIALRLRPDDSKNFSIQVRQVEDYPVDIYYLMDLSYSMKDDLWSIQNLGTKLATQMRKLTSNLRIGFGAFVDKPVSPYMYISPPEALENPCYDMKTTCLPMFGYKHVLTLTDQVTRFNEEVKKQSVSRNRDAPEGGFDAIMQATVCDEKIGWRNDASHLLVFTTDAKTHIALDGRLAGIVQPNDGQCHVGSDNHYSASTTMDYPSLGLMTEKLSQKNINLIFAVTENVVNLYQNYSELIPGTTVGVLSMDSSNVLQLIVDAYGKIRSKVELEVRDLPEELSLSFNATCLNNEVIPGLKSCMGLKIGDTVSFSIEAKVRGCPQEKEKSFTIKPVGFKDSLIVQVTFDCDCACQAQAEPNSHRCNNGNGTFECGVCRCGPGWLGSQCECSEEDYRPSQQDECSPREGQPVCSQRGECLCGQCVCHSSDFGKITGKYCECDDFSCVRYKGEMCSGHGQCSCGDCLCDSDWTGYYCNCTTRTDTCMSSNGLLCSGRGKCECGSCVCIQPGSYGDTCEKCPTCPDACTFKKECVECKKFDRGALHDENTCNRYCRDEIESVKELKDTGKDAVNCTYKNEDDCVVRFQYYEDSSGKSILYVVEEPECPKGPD
Experimental: as §1
as §2, with “signals. […]” for “signals.”

human αVβ5 = human αVβ5 (Homo sapiens, UniProt P06756+P18084); test: human αVβ5 HTRF binding assay
human αVβ5, sequence (P06756 31-992 limits assumed): as the sequence (P06756 31-992 limits assumed) above
human αVβ5, sequence (P18084 24-719 limits assumed): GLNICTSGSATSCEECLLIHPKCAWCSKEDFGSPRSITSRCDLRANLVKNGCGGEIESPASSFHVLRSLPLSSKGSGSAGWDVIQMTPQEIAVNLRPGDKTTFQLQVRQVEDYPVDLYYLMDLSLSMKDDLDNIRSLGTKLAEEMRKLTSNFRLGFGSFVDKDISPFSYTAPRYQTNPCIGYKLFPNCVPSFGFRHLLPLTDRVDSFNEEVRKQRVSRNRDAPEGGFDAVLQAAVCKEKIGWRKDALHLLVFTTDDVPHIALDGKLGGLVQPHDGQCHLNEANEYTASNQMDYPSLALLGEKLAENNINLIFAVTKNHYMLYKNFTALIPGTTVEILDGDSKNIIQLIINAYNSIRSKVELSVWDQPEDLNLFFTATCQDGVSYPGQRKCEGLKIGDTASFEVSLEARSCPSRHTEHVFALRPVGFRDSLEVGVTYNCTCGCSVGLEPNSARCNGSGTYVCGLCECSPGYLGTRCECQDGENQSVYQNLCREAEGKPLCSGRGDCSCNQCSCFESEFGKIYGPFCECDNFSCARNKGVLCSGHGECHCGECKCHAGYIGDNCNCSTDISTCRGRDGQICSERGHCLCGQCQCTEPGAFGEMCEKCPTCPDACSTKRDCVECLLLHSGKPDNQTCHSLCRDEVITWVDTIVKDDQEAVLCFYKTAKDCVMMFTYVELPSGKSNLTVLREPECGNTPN
Experimental: as §1
as §2, with “signals. […]” for “signals.”

human αVβ8 = human αVβ8 (Homo sapiens, UniProt P06756+P26012); test: human αVβ8 HTRF binding assay
human αVβ8, sequence (P06756 31-992 limits assumed): as the sequence (P06756 31-992 limits assumed) above
human αVβ8, sequence (P26012 43-684 limits assumed): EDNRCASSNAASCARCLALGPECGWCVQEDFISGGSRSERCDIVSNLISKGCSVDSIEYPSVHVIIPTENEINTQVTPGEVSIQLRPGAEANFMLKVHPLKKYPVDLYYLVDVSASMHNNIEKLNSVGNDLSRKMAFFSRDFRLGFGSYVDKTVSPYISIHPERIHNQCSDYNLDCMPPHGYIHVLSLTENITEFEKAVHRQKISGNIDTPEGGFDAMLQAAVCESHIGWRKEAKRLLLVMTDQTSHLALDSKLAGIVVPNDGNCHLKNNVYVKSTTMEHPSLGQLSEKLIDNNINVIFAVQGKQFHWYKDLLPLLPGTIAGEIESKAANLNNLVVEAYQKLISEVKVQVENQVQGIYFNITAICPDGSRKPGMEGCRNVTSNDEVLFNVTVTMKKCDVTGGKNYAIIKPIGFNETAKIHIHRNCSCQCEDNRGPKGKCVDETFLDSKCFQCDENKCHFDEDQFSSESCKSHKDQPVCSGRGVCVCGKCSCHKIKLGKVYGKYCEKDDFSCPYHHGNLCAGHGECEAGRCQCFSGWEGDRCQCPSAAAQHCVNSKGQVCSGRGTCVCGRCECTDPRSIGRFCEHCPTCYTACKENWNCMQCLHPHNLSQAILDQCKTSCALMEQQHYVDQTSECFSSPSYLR
Experimental: as §1
as §2, with “signals. […]” for “signals.”

T1 sequence (P06756 31-992 limits assumed): as the sequence (P06756 31-992 limits assumed) above
T1 sequence (P18564 22-707 limits assumed): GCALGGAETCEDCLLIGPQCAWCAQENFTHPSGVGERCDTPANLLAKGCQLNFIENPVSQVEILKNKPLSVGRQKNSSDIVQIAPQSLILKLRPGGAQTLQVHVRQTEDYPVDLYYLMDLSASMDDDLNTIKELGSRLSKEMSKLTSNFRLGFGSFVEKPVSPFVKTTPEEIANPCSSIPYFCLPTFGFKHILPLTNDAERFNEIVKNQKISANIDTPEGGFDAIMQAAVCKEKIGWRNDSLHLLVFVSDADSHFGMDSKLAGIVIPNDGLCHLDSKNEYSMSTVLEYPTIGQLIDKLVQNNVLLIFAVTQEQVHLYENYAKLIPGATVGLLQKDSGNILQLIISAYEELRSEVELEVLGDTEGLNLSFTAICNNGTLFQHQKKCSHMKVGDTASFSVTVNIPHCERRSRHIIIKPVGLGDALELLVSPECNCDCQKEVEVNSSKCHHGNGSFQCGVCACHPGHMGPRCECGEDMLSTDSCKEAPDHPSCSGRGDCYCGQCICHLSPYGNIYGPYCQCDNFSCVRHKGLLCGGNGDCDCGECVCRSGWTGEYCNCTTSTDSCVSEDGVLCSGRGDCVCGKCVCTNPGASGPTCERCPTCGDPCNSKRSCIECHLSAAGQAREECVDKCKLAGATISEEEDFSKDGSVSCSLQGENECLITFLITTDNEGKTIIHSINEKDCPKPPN

| IC50 (human αVβ6) [nM] | IC50 (human αVβ1) [nM] | IC50 (human αVβ3) [nM] | IC50 (human αVβ5) [nM] | IC50 (human αVβ8) [nM] | Compound |
| --- | --- | --- | --- | --- | --- |
| 19 | 370 | 3.1 | 0.42 | 5000 | O=C(O)CC(c1cncc(CO)c1)n1ncc2cc(OCCc3ccc4c(n3)NCCC4)ccc21 (stereo not drawn) [Example 89, 3-(5-(Hydroxymethyl)pyridin-3-yl)-3-(5-(2-(5,6,7,8-tetrahydro-1,8-naphthyridin-2-yl)ethoxy)-1H-indazol-1-yl)propanoic acid] |
| 31 | 210 | 2.4 | 0.39 | 5000 | COc1ncc(C(CC(=O)O)n2ncc3cc(OCCc4ccc5c(n4)NCCC5)ccc32)cn1 (stereo not drawn) [Example 92, 3-(2-Methoxypyrimidin-5-yl)-3-(5-(2-(5,6,7,8-tetrahydro-1,8-naphthyridin-2-yl)ethoxy)-1H-indazol-1-yl)propanoic acid, TFA] |
| 10 | 100 | 2.6 | 0.59 | 5000 | O=C(O)CC(c1cnc2c(c1)OCCN2)n1ncc2cc(OCCc3ccc4c(n3)NCCC4)ccc21 (stereo not drawn) [Example 97, TFA] |
| 14 | 140 | 2.9 | 0.41 | 4400 | O=C(O)C[C@@H](c1cncc(CO)c1)n1ncc2cc(OCCc3ccc4c(n3)NCCC4)ccc21 [Example 100, (5)-3-(5-(Hydroxymethyl)pyridin-3-yl)-3-(5-(2-(5,6,7,8-tetrahydro-1,8-naphthyridin-2-yl)ethoxy)-1H-indazol-1-yl)propanoic acid] |
| 12 | 30 | 2.61 | 0.28 | 1800 | O=C(O)CC(c1cncc(C2OCCO2)c1)n1ncc2cc(OCCc3ccc4c(n3)NCCC4)ccc21 (stereo not drawn) [Example 104, 3-(5-(1,3-Dioxolan-2-yl)pyridin-3-yl)-3(5-(2-(5,6,7,8-tetrahydro-1,8-naphthyridin-2-yl)ethoxy)-1H-indazol-1yl)propanoic acid] |
| 23 | 78 | 1.3 | 2.6 | 3000 | O=C(O)CC(c1cnc2[nH]ncc2c1)n1ncc2cc(OCCc3ccc4c(n3)NCCC4)ccc21 (stereo not drawn) [Example 106, 3-(1H-Pyrazolo[3,4-b]pyridin-5-yl)-3-(5-(2-(5,6,7,8-tetrahydro-1,8-naphthyridin-2-yl)ethoxy)-1H-indazol-1-yl)propanoic acid, 2 TFA] |
| 15 | 64 | 2.4 | 0.32 | 300 | CCOc1ncc([C@H](CC(=O)O)n2ncc3cc(OCCc4ccc5c(n4)NCCC5)ccc32)cn1 [Example 107, (S)-3-(2-Ethoxypyrimidin-5-yl)-3-(5-(2-(5,6,7,8-tetrahydro-1,8-naphthyridin-2-yl)ethoxy)-1H-indazol-1-yl)propanoic acid, TFA] |
| 19 | 63 | 1.6 | 0.46 | 2200 | Cn1ncc2cc(C(CC(=O)O)n3ncc4cc(OCCc5ccc6c(n5)NCCC6)ccc43)cnc21 (stereo not drawn) [Example 117, 3-(1-Methyl-1H-pyrazolo[3,4-b]pyridin5-yl)-3-(5-(2-(5,6,7,8-tetrahydro-1,8-naphthyridin-2-yl)ethoxy)-1H-indazol-1-yl)propanoic acid, 2 TFA] |
| 12 | 4300 | 2 | 1.1 | 3100 | COc1ncc([C@H](CC(=O)O)n2cc3ccc(CCc4ccc5c(n4)NCCC5)cc3n2)cn1 [Example 118, (5)-3-(2-Methoxypyrimidin-5-yl)-3-(6-(2-(5,6,7,8-tetrahydro-1,8-naphthyridin-2-yl)ethyl)-2H-indazol-2-yl)propanoic acid] |
| 10.6 | 98 | 1.4 | 0.6 | 4400 | O=C(O)CC(c1cnc(N2CCC2)nc1)n1ncc2cc(OCCc3ccc4c(n3)NCCC4)ccc21 (stereo not drawn) [Example 119, 3-(2-(Azetidin-1-yl)pyrimidin-5-yl)-3-(5-(2-(5,6,7,8-tetrahydro-1,8-naphthyridin-2-yl)ethoxy)-1H-indazol-1-yl)propanoic acid, 2 TFA] |
| 16 | 200 | 1.5 | 0.2 | 7500 | Cn1cc2cc(C(CC(=O)O)n3ncc4cc(OCCc5ccc6c(n5)NCCC6)ccc43)cnc2n1 (stereo not drawn) [Example 120, 3-(2-Methyl-2H-pyrazolo[3,4-b]pyridin-5-yl)-3-(5-(2-(5,6,7,8-tetrahydro-1,8-naphthyridin-2-yl)ethoxy)-1H-indazol-1-yl)propanoic acid, 2 TFA] |
| 8.8 | 71 | 3.1 | 0.46 | 2600 | O=C(O)CC(c1cncc(-c2cnco2)c1)n1ncc2cc(OCCc3ccc4c(n3)NCCC4)ccc21 (stereo not drawn) [Example 121, 3-(5-(Oxazol-5-yl)pyridin-3-yl)-3-(5-(2-(5,6,7,8-tetrahydro-1,8-naphthyridin-2-yl)ethoxy)-1H-indazol-1-yl)propanoic acid] |
